Measurements reported in ChEMBL document CHEMBL5465560, “Selectivity Literature for EUbOPEN Chemogenomic Library” (2024).

Key:
[1] = biological target: Calcium/calmodulin-dependent protein kinase kinase 1 (Homo sapiens) (UniProt Q8N5S9); assay: Selectivity interaction (LanthaScreen Eu Kinase Binding Assay) EUB0001632a CAMKK1; conditions: at 10 µM
[2] = biological target: T1, Mitogen-activated protein kinase kinase kinase 19 (Homo sapiens) (UniProt Q56UN5); assay: Selectivity interaction (Kinase panel (Z-LYTE Assay)) EUB0001632a MAP3K19; conditions: at 10 µM
T1 sequence (whole entry): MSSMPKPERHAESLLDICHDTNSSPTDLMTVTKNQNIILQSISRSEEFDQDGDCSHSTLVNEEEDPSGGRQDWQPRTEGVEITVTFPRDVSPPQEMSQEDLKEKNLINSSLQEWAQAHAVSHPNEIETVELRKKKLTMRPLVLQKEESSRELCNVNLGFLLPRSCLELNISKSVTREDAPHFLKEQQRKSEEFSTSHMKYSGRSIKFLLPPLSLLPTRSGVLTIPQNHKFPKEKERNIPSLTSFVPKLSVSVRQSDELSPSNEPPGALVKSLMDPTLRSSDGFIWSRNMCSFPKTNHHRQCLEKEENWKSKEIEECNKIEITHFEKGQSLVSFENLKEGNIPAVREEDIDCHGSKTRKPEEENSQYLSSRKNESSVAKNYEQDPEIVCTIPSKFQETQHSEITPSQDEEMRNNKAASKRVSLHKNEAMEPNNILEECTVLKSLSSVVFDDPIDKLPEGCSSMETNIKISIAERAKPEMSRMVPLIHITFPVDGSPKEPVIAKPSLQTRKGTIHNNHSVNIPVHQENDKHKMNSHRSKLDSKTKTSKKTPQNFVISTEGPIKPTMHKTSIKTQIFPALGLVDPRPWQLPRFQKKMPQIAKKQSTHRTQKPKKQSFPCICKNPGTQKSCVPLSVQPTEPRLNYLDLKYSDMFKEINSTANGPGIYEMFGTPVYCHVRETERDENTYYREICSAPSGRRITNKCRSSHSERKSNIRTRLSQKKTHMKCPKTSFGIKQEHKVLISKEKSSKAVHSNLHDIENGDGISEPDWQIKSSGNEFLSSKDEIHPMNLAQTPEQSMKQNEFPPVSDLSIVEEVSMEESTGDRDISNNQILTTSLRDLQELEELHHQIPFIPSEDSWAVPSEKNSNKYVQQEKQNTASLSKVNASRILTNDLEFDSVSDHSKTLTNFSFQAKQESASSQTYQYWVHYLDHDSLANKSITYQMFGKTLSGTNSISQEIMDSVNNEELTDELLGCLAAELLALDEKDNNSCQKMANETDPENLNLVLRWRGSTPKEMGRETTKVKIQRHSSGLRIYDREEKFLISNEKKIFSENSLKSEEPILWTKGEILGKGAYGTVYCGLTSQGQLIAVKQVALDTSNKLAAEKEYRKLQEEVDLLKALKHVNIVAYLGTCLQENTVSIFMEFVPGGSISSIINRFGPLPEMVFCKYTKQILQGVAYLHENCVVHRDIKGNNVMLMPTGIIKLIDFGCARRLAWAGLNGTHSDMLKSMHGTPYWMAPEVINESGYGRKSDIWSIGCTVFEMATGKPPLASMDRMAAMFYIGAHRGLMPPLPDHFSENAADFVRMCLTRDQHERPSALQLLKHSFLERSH

[3] = biological target: Nucleosome-remodeling factor subunit BPTF (Homo sapiens, UniProt Q12830); assay: Selectivity interaction (Bromodomain panel (DSF asssay)) EUB0000270b BPTF
[4] = biological target: CDK1/Cyclin A (Homo sapiens) (UniProt P06493+P20248); assay: (§1) Selectivity interaction (ProQinase) EUB0000171b CDK1; type: protein-complex assay
[5] = biological target: CDK1/Cyclin E (Homo sapiens) (UniProt P06493+P24864); assay: as §1; type: protein-complex assay
[6] = biological target: Cyclin-dependent kinase 1/cyclin B1 (Homo sapiens) (UniProt P06493+P14635); assay: as §1; type: protein-complex assay
[7] = biological target: T2, Serine/threonine-protein kinase Nek1 (Homo sapiens) (UniProt Q96PY6); assay: Selectivity interaction (ProQinase) EUB0000171b NEK1
T2 sequence (whole entry): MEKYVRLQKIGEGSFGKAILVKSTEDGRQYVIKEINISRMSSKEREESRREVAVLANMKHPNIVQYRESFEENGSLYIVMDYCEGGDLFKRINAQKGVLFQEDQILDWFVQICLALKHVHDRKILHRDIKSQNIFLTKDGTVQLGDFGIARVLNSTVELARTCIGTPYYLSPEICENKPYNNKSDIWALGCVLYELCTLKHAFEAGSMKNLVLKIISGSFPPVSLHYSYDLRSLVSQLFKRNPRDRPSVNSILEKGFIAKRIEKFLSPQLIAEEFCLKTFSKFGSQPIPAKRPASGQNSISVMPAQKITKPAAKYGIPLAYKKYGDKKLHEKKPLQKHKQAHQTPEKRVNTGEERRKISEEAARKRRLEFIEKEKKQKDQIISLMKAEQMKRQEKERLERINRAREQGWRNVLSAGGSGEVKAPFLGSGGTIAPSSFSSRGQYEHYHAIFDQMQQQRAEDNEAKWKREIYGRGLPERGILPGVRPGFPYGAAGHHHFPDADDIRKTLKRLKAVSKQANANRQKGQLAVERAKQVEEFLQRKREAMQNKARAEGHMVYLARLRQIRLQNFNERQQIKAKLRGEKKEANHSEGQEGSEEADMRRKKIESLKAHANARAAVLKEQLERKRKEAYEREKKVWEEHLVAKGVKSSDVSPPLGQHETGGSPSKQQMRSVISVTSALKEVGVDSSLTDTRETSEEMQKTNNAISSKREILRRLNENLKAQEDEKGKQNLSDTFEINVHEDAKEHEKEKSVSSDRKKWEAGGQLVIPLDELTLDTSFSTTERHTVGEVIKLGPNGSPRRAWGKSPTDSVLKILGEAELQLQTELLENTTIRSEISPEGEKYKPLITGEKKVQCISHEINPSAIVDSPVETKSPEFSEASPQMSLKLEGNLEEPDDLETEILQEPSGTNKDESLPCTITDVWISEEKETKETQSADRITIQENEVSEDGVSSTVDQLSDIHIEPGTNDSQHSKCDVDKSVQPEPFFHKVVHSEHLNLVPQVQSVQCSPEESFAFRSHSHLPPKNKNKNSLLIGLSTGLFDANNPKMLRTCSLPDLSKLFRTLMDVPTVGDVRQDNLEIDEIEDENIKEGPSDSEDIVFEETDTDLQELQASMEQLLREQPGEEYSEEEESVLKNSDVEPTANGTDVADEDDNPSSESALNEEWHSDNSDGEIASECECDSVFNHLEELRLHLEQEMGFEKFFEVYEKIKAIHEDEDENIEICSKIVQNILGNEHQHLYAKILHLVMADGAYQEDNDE

[8] = biological target: Cyclin-dependent kinase 11B (Homo sapiens) (UniProt P21127); assay: Selectivity interaction (KinomeScan (DiscoverX)) EUB0001619a CDK11B; conditions: at 1 µM
Sequence of Cyclin-dependent kinase 11B (Homo sapiens) (P21127 whole entry): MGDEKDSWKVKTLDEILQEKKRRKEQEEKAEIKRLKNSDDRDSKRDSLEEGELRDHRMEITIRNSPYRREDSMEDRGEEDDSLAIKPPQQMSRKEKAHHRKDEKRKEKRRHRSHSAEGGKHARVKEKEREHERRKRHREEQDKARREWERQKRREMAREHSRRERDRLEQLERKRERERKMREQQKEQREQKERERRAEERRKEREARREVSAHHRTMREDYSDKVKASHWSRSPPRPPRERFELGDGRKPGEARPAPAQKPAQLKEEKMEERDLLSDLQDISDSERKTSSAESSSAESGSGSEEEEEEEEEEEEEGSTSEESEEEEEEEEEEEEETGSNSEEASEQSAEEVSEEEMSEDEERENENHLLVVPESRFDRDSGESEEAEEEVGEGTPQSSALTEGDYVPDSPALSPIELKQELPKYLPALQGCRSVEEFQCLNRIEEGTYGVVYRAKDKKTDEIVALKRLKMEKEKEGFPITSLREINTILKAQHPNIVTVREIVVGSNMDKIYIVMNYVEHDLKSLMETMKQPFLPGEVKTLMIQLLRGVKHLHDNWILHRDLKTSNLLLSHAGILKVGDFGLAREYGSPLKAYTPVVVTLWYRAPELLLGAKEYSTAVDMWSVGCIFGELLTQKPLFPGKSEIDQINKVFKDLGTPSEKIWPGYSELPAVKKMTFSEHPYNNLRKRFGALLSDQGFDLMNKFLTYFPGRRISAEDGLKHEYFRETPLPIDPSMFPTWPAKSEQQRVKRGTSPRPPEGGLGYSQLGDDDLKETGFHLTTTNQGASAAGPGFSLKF

Sequence of CDK1/Cyclin A (Homo sapiens) (P06493 whole entry, looked up): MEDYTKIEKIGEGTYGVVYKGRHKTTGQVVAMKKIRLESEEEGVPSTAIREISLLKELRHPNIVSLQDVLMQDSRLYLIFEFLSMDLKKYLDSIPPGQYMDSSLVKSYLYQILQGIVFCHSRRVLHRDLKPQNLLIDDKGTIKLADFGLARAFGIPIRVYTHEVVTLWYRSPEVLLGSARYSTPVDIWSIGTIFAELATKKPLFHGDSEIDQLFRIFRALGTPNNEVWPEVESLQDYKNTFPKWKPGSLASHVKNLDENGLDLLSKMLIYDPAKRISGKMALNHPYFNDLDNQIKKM
Sequence of CDK1/Cyclin A (Homo sapiens) (P20248 whole entry, looked up): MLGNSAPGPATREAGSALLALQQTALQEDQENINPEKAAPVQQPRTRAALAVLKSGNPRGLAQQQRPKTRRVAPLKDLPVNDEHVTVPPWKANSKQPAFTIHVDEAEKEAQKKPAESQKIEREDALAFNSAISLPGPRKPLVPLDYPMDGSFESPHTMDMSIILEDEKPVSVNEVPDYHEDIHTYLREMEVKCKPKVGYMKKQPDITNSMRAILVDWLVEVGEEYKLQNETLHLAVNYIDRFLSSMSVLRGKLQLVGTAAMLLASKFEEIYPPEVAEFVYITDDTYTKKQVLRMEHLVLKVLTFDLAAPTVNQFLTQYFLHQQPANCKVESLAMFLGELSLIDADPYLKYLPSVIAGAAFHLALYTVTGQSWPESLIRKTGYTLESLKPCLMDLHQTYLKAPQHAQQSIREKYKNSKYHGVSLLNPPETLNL
Sequence of CDK1/Cyclin E (Homo sapiens) (P06493 whole entry, looked up): as the sequence (P06493 whole entry, looked up) above
Sequence of CDK1/Cyclin E (Homo sapiens) (P24864 whole entry, looked up): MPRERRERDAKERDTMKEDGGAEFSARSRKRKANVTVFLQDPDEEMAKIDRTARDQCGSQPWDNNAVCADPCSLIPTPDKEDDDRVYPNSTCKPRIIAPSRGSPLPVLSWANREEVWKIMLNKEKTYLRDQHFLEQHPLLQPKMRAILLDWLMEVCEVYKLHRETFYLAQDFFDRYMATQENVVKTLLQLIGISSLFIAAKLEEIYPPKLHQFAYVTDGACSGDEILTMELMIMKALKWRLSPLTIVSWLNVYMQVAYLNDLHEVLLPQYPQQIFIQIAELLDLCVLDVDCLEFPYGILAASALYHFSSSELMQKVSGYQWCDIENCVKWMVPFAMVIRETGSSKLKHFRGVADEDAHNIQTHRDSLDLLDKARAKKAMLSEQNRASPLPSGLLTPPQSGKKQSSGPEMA
Sequence of Cyclin-dependent kinase 1/cyclin B1 (Homo sapiens) (P06493 whole entry, looked up): as the sequence (P06493 whole entry, looked up) above
Sequence of Cyclin-dependent kinase 1/cyclin B1 (Homo sapiens) (P14635 whole entry, looked up): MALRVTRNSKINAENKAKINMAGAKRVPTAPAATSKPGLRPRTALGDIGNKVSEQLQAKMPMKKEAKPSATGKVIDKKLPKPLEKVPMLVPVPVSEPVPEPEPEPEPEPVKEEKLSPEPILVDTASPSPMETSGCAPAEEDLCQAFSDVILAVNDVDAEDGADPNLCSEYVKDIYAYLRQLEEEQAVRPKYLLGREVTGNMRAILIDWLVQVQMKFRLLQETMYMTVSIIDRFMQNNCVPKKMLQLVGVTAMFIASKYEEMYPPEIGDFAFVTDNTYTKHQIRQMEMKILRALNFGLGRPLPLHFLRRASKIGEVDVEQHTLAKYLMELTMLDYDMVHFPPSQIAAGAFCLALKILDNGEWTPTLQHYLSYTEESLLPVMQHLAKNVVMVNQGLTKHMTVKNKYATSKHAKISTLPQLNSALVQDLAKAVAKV
Sequence of Calcium/calmodulin-dependent protein kinase kinase 1 (Homo sapiens) (Q8N5S9 whole entry, looked up): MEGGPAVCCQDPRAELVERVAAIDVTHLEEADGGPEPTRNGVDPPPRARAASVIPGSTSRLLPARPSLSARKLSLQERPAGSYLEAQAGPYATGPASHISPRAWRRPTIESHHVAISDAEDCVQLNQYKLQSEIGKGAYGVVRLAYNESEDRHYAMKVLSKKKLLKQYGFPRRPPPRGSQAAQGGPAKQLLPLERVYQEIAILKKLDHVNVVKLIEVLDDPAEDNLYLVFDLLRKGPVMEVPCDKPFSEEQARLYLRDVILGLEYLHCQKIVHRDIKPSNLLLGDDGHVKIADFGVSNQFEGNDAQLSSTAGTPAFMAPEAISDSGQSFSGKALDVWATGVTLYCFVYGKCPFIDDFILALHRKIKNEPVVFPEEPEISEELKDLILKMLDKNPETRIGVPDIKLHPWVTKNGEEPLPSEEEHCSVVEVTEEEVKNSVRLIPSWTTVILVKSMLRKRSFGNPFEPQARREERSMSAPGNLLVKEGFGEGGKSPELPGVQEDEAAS

Cn1cc(-n2cnc3c(NCc4nc5cc(Cl)c(Cl)cc5[nH]4)nc(N4CCOCC4)nc32)cn1
% of inhibition [1]: -49.1%
% of control [2]: -3.06%

Cc1cc(CN)cc(C)c1-c1ncn(C)c1-c1cncn1C
dTM [3]: -2.3 K

C=CC(=O)Nc1cccc(C(=O)Nc2ccc(Nc3cc(-c4[nH]c(SC)nc4C)ccn3)cc2)c1
% of control ([4]; at 1 µM): 89%
% of control ([4]; at 5 µM): 79%
% of control ([5]; at 1 µM): 90%
% of control ([5]; at 5 µM): 74%
% of control ([6]; at 1 µM): 94%
% of control ([6]; at 5 µM): 77%
% of control ([7]; at 1 µM): 80%
% of control ([7]; at 5 µM): 64%

N#Cc1cccc(-c2c[nH]c3ncnc(N4CCOCC4)c23)c1
% of control [8]: 100%
